From patent US20240336658A1, “CYCLIC PEPTIDE AND PREPARATION METHOD AND USE THEREOF” (HANGZHOU HUIBO SCIENCE AND TECHNOLOGY CO., LTD, priority 2021, published 2024)

Experiments:
[1] = tested on: full-thickness skin defect wound surfaces; experiment: Effects of cyclic peptide Hst1 on wound repair in mice (Example 10): healing rate, HE/Masson histology, CD31/VEGF immunohistochemistry; assay type: in vivo, C57 BL/6 mice
Experimental: This example adopted the propargylglycine-Hst1 cyclic peptide (Click-Histatin1) provided in Example 1, a cyclized Hst1 (Sortase A-cyclic histatin1) prepared by the Sortase A enzymatic method provided in Example 4, and a linear peptide Hst1 (Histatin1) to conduct animal experiments to observe the effect of the propargylglycine-Hst1 on the healing rates of the wound surfaces of mice. The concentration of the linear peptide Hst1 was 10 μM, the concentration of the propargylglycine-Hst1 cyclic peptide was 0.1 μM, and the concentration of the cyclized Hst1 prepared by the Sortase A enzymatic method was each 0.1 μM. 12 healthy male special pathogen-free grade C57 BL/6 mice (purchased from Guangdong Experimental Animal Center) of 6-8 weeks old and weighing 22-28 g. They were intraperitoneally injected with 5 ml/kg of 1% pentobarbital sodium for anesthesia. After the mice had no corneal reflex, the hair on their backs was carefully removed and disinfected with alcohol. […] full-thickness skin defect wound surfaces were prepared on the back of each mouse by using a circular skin punch. The 12 mice were divided into a Control (blank) group with 3 mice, a 10 μM linear peptide Hst1 (Histatin1) group with 3 mice, a 0.1 μM propynylglycine-Hst1 cyclic peptide (Click-Histatin1) group with 3 mice, and a 0.1 μM cyclized Hst1 prepared by a Sortase A enzymatic method (Sortase A-cyclic histatin1) group with 3 mice, according to a random number table method. Each wound surface was added with 0.5 ml of four drugs respectively, and administration was conducted every day until the wound surfaces of the experimental groups healed. Photographs were taken on days 0, 3, 5, 7, and 10 after surgery, and wound tissues were sampled on day 10 for subsequent pathological staining. On days 0, 3, 5, 7, and 10 after injury, the general condition of wound healing of the mice was observed and photographed with a digital camera (see FIG. 4), and the wound healing rate was calculated (see FIG. 5). Wound healing rate=(wound area immediately after injury−unhealed wound area at each time point)[…]wound area immediately after injury×100%. The wound specimens were fixed in 4% paraformaldehyde for 48 hours, rinsed with tap water for 10 minutes, dehydrated with graded ethanol, permeabilized with xylene, and embedded in paraffin to prepare 4 μm thick sections. Some sections were taken for HE staining and Masson staining, and observed for the thickness of the granulation tissue, the length of the dermal gap, and the newly grown collagen of the wound surface under an inverted fluorescence microscope at 40×, 100×, 200×, and 400× respectively (see FIGS. 6 and 7). 5 sections were taken from each mouse, and 5 fields of view were selected for each section. Data analysis was performed using the software Image-pro Plus. […] It was added with a rabbit anti-mouse CD31 primary antibody (with a dilution ratio of 1:300) and a mouse anti-VEGF (with a dilution ratio of 1:100), incubated overnight at 4° C., and washed with PBS. […] It was subjected to DAB development, hematoxylin counterstaining. gradient ethanol dehydration, xylene permeabilization, and resin blocking. 5 sections were taken from each mouse, and 5 fields of view were selected for each section. The sections were observed under a 400× inverted fluorescence microscope, and analyzed for the number of CD31-positive blood vessels (see FIG. 8) and VEGF expression amounts (see FIG. 9, shown in brown) by using Image-pro Plus software. The measurement data were expressed by M±SD, and the data were analyzed by one-way analysis of variance (ANOVA) and an independent samples T-test with SPSS 20.0 software to detect whether the differences among the groups were statistically significant, and a Bonferroni test was used for pairwise comparison. *p<0.05. **p<0.01. ***p<0.001 meant the difference was statistically significant, and p>0.05 was not statistically significant.

[2] = tested on: fibroblasts (NIH/3T3); experiment: Scratching experiment, Hst1 cyclic peptides (Examples 11 and 12); assay type: cell-based; settings: dosage needed to achieve the same pharmaceutical effect in the scratch experiment
Experimental: At the same time, fibroblasts (NIH/3T3; GNM 6; Chinese Academy of Sciences, China) were plated into a 6-well plate at a number of 2×10^6/well and cultured to a density of 70-80%. The cells were starved for 8-12 hours before the experiment. Mitomycin C (Sigma Aldrich, USA) was added into the culture medium to make its concentration in the culture medium be 15 μg/ml, and the culture medium was changed after 3 hours of treatment. Scratching was conducted with a 200 μl pipette tip perpendicular to the bottom of the well-plate with the same force, and the well-plate was rinsed with PBS twice after scratching. Each well was added with an appropriate amount of a DEME medium (10% FBS, 1% double antibody), and except for the blank control group, each well was added with 10 μM of the linear Hst1, 0.01 μM of the propynylglycine-Hst1 cyclic peptide, 0.1 μM of the propynylglycine-Hst1 cyclic peptide and 1 μM of the propynylglycine-Hst1 cyclic peptide as experimental groups. At 0 hour, the cells in each group were photographed by using a microscope (Olympus, Japan). […] The scratched area of each group was calculated by using imageJ (Rawak Software, Inc. Germany) software, and the scratch area at 0 hour was an initial scratch area. The scratch healing rate was calculated as follows: […]

[3] = day 10, immunohistochemistry, 0.1 μM Click-Histatin1, 10 μM Histatin1

Substance: Linear Hst1: linear peptide Hst1 (Histatin1), amino acid sequence SEQ ID NO.1
- healing rate of the wound surface ([1]; day 7, 10 μM Histatin1 vs 0.1 μM Click-Histatin1): no significant difference
- dermal gap length at both ends of the wound surface ([1]; day 10, HE staining, 0.1 μM Click-Histatin1, 0.1 μM Sortase A-cyclic histatin1, 10 μM Histatin1): longest dermal gap length
- expression amount of collagen at the wound surfaces ([1]; day 10, Masson staining, 0.1 μM Click-Histatin1, 0.1 μM Sortase A-cyclic histatin1, 10 μM Histatin1): significantly higher than that of the Control group
- VEGF expression amount [1, 3]: higher than that in the Control group
- number of CD31-positive blood vessels under each field of view [1, 3]: significantly higher than that in the Control group
- Dosage of agents required for scratch test [2]: 10 µM
